Measured values as given in patent publication EP0783890A1, “Use of 2-methyl-4-(4-methyl-1-piperazinyl)-10H-thieno(2,3-b)(1,5)benzodiazepine for the treatment of fungal dermatitis” (ELI LILLY AND COMPANY, priority 1995, dated 1997).

Assays:
[1] = test system: apomorphine-induced hypothermia; details: mice; cited from earlier work
[2] = test system: conditioned avoidance response; details: rats; cited from earlier work
[3] = double-blind, randomized, placebo and haloperidol-controlled clinical trial: occurrence of fungal dermatitis; format: in vivo; details: 15 +/-2.5 mg/day vs haloperidol (15 +/- 5 mg/day), double-blind extension treatment phase, human subjects
Experimental: Such effectiveness for the treatment, amelioration of fungal dermatitis was shown in the following clinical trial:
The study was a double-blind, randomized, parallel, placebo and haloperidol-controlled study of 55 human subjects. The study was conducted in 23 study centers throughout the United States and Canada. […] The acute phase lasted for 6 weeks with evaluations performed weekly followed by a double-blind extension phase of at least one year.

[4] = biological target: T1, 5-HT1C receptor (Homo sapiens, UniProt P28335); details: in vitro; cited from earlier work
T1 sequence (P28335 33-458): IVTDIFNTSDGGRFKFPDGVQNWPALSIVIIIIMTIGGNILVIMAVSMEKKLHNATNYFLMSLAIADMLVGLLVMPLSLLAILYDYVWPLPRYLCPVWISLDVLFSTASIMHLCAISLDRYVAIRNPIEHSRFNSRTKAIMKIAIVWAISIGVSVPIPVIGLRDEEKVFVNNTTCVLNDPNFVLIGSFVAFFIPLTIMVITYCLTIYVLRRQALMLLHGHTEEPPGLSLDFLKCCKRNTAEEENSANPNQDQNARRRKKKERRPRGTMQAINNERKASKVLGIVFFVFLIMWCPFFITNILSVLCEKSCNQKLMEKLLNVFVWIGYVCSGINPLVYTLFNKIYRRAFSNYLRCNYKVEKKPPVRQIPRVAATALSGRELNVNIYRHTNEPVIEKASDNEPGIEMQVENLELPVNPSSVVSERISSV

[5] = test system: apomorphine-induced climbing behavior; details: mice; cited from earlier work
[6] = detection of radiolabelled compound in saliva; format: in vivo
Experimental: For example, in the treatment of adult humans, dosages of from about 5 to 20 mg per day may be used. A once a day dosage is normally sufficient, although divided doses may be administered. For treatment of fungal dermatitis in a human, a dose range of from about […], preferably 5 to 20 mg per day is suitable.

For `Cc1cc2c(s1)Nc1ccccc1N=C2N1CCN(C)CC1` [2-methyl-4-(4-methyl-1-piperazinyl)-10H-thieno[2,3-b][1,5]benzodiazepine], the apomorphine-induced hypothermia [1] is listed as “antagonized”, the conditioned avoidance response [2] is listed as “inhibits” and the “occurrence of fungal dermatitis compared with haloperidol” value [3] is listed as “statistically significantly less frequently”. For the same compound, the “activity at the 5-HT1C receptor” value [4] was “active”, the apomorphine-induced climbing behavior [5] was “antagonized” and the “detection in the saliva” value [6] was “can be detected in the saliva”.
